In experiment [1] the test system is test subject. The class given is in vivo, human. Particulars: Homo sapiens, 10 min.
Experiment [2] deals with test subject. Kind of experiment: Bicycle ergometer test at 100 W: antagonism between inactive (1st dosage) and active (2nd dosage) substances (Example 1b). The class given is in vivo, human. Particulars: for Change in the oxygen consumption after 2nd dosage: relative to after 1st dosage. The procedure:
(§1) 13 to Mar. 6, 1999, with a subject in good physical condition under standard conditions. The subject was required each morning in the fasting state to perform successively (without interruption) at mechanical power output of 100 W, 125 W and 150 W, each lasting 10 minutes (total test duration 30 minutes each time). […] The heat production induced by mechanical exertion was calculated from the changes in the heart rate. An alternative possibility is also to determine it on the basis of the increase in humidity caused by the perspiration (the tests are carried out in a closed room) or reduction in weight (1 g of water=2.26 kJ). […] The values indicated in table la for the “average heart rate” are in each case averages over the 30-minute duration of the test; relative values for the oxygen consumption were established on the basis of the heart rates in a known manner, and the relative values indicated in Table 1a are based on the oxygen consumption on the first day (=100%); the values listed in the column “heat production” in Table 1a give the percentage deviation of the heat production, established on the basis of the perspiration, from the average from all the tests.
(§2) It is known that the oxygen uptake can be determined by measuring the heart rate as a function of the mechanical exertion. This ergometric method is based on establishing the oxygen transport volume through the action of the heart. Since the stroke volume is essentially constant irrespective of the intensity of the mechanical work, and the increased oxygen demand caused by the increase in work results in an increase in the heart rate, the quantity of the transported oxygen can be established by determining the additional heartbeats caused by the work. A 3-stage ergometer as recommended by the World Health Organization (WHO) is used in physiology research institutes and fitness clubs around the world.

A short description of experiment [3]: Oxygen-sparing action during physical work, general findings in the description. Format: in vivo. Particulars: result in words.
The test system of experiment [4] is test subject. Kind of experiment: Bicycle ergometer test at 100 W: active ingredient, sucrose, further active ingredient, amino acid/vitamin product (Example 1c). The class given is in vivo, human. To be noted: for Average heart rate after 4th dos.: 0.2 mg series, 4th dosage 100 mg of Na glutamate, 0.3 mg of folic acid, 5 μg of cyanocobalamin in 10 mg of gelatin; for Average heart rate after 3rd dos.: 3rd dosage further 0.2 mg of active ingredient after sucrose; for Average heart rate after 2nd dos.: after 0.2 mg of active ingredient, then 2nd dosage 2.5 g of sucrose. The procedure: as §1, §2

Experiment [5] concerns test subject. Described as above. Format: in vivo, human. Particulars: for Change in oxygen consumption after 2nd dos. / Change in oxygen consumption after 4th dos.: 0.2 mg series; for Change in oxygen consumption after 2nd dos.: 2nd dosage 2.5 g of sucrose; for Change in oxygen consumption after 2nd dos. / Change in oxygen consumption after 4th dos. / Change in oxygen consumption after 3rd dos.: relative to preceding dosage; for Change in oxygen consumption after 4th dos.: 4th dosage Na glutamate/folic acid/cyanocobalamin/gelatin; for Average heart rate after 1st dos.: 1st dosage 0.2 mg as dilute aqueous solution, 10-minute test at 100 W; for Change in oxygen consumption after 3rd dos.: 3rd dosage further 0.2 mg of active ingredient.

[6] abbreviates: read-out: Change in the oxygen demand.
[7] abbreviates: read-out: Heat production (deviation from the average of all the tests).

Read-outs that look alike come from different tables or passages of the source.

In the case of `O=C1CN=C(c2ccccn2)c2cc(Br)ccc2N1` [bromazepam], the change in vivo at 1 mg in experiment [1] (setting [6]) was found to be 0%; in experiment [1] (setting [7]) it was 6%. Besides, the “Average heart rate after 1st dosage” value in experiment [2] (1st dosage 3 mg in 20 ml of water, 10-minute test at 100 W) worked out at 129.3 per minute. Besides, the change in vivo at 3 mg in experiment [2] (Homo sapiens, 1st dosage 3 mg, 100 W, read-out: Change in the oxygen consumption after 1st dosage) was determined as 23%. The “Oxygen demand after administration” value in experiment [3] (even occasionally increased) was “not reduced”.

Consider `COc1ccc2c3c1O[C@H]1[C@@H](O)C=C[C@H]4[C@@H](C2)N(C)CC[C@@]341` [codeine], for which the change in vivo at 0.2 mg in experiment [1] (setting [6]) was -29%; in experiment [1] (setting [7]) it was -27%. For the same compound, the “Change in the oxygen consumption after 2nd dosage” value is reported as −57% in experiment [2] (2nd dosage 0.5 mg, after 0.5 mg of flupentixol, 100 W); −59% in experiment [2] (2nd dosage 0.5 mg, after 1 mg of lorazepam, 100 W); −52% in experiment [2] (2nd dosage 0.5 mg, after 6 mg of amitriptyline + 2.5 mg of chlordiazepoxide, 100 W); −67% in experiment [2] (2nd dosage 0.5 mg, after 7 mg of oxazepam, 100 W); −69% in experiment [2] (2nd dosage 0.5 mg, after 10 mg of chlorprotixen, 100 W). The “Average heart rate after 2nd dosage” value was found to be 89.7 per minute in experiment [2] (2nd dosage 0.5 mg, after 1st dosage of 0.5 mg of flupentixol, 100 W); 91.8 per minute in experiment [2] (2nd dosage 0.5 mg, after 1st dosage of 1 mg of lorazepam, 100 W); 86.5 per minute in experiment [2] (2nd dosage 0.5 mg, after 1st dosage of 6 mg of amitriptyline + 2.5 mg of chlordiazepoxide, 100 W); 104.1 per minute in experiment [2] (2nd dosage 0.5 mg, after 1st dosage of 7 mg of oxazepam, 100 W); 90.0 per minute in experiment [2] (2nd dosage 0.5 mg, after 1st dosage of 10 mg of chlorprotixen, 100 W). Besides, in experiment [4], the “Average heart rate after 4th dos.” value is reported as 82.9 per minute. The “Average heart rate after 3rd dos.” value in experiment [4] amounted to 108 per minute. Further, the “Average heart rate after 2nd dos.” value in experiment [4] was found to be 107.3 per minute. For the same compound, the “Suitability for reducing the oxygen consumption during physical work” value in experiment [3] was “suitable”. The “Change in oxygen consumption after 2nd dos.” value in experiment [5] was “+69%”. The “Change in oxygen consumption after 4th dos.” value in experiment [5] is −50%. Also, the “Average heart rate after 1st dos.” value in experiment [5] was found to be 73.0 per minute. Further, the “Change in oxygen consumption after 3rd dos.” value in experiment [5] is listed as “+2%”.

As for `COc1ccc2c(c1)[C@]13CCCC[C@@H]1[C@H](C2)N(C)CC3` [dextromethorphan], the change in vivo at 0.2 mg in experiment [1] (setting [6]) was -57%. Moreover, in experiment [1] (setting [7]), the change in vivo at 0.2 mg was -49%. Further, in experiment [2] (2nd dosage 0.2 mg, after 6 mg of amitriptyline + 2.5 mg of chlordiazepoxide, 100 W), the “Change in the oxygen consumption after 2nd dosage” value was −81%. In addition, the “Average heart rate after 2nd dosage” value in experiment [2] (2nd dosage 0.2 mg, after 1st dosage of 6 mg of amitriptyline + 2.5 mg of chlordiazepoxide, 100 W) stood at 84.8 per minute. Besides, in experiment [4], the “Average heart rate after 4th dos.” value amounted to 87.8 per minute, the “Average heart rate after 3rd dos.” value is given as 111 per minute and the “Average heart rate after 2nd dos.” value was found to be 110.4 per minute. In experiment [3], the “Suitability for reducing the oxygen consumption during physical work” value is recorded as “suitable”. In addition, in experiment [5], the “Change in oxygen consumption after 2nd dos.” value was “+69%”, the “Change in oxygen consumption after 4th dos.” value is −46%, the “Average heart rate after 1st dos.” value amounted to 75.8 per minute and the “Change in oxygen consumption after 3rd dos.” value is listed as “+1%”.
